Tested on: gold fish (Japanese gold fish, Carassius auratus) with columnaris disease
Experiment: Treatment for a disease of gold fish (columnaris disease)
Format: in vivo
Settings: bred one week, each ingredient 1 (w/v)%; for Treatment effect: columnaris disease; for Activity of gold fish: macroscopic observation
Experimental: One per group of gold fish (Japanese gold fish, Carassius auratus) with columnaris disease was bred in an aquarium filled with 2 L of aqueous solution containing 1 w/v % mineral and 1 w/v % α,α-trehalose or α-maltosyl α,α-trehalose at ambient temperature with normal feed for one week. Waters containing either of mineral, α,α-trehalose or α-maltosyl α,α-trehalose as references and water as a control were prepared to breed similarly as above. The fishes were macroscopically observed their activity and treatment effect.

SMILES: OC[C@H]1O[C@H](O[C@H]2O[C@H](CO)[C@@H](O[C@H]3O[C@H](CO)[C@@H](O[C@H]4O[C@H](CO)[C@@H](O)[C@H](O)[C@H]4O)[C@H](O)[C@H]3O)[C@H](O)[C@H]2O)[C@H](O)[C@@H](O)[C@@H]1O [α-Maltosyl α,α-trehalose, α-maltosyl α,α-trehalose]
- Treatment effect: Bad
- Activity of gold fish: Good

SMILES: OC[C@H]1O[C@H](O[C@H]2O[C@H](CO)[C@@H](O)[C@H](O)[C@H]2O)[C@H](O)[C@@H](O)[C@@H]1O [α,α-Trehalose, α,α-trehalose]
- Treatment effect: Bad
- Activity of gold fish: Good

Reference: patent publication US20070232563A1, “Method for Enhancing Biological Activity and/or Expanding Suitable Region for Biological Activity of Living Body Contacting with Aqueous Environment” (Kabushiki Kaisha Hayashibara Seibutsu Kagaku Kenky, priority 2004, published 2007)
